Columns and labels:
Type in all cases: cell-based
[1] = target: T1, human TLR8 (Homo sapiens, UniProt Q9NR97); experiment: TLR8 inhibition reporter assay (HEK-Blue cells, SEAP reporter, R848 stimulation); details: HEK-Blue cells overexpressing human TLR8, SEAP reporter, R848 15.9 μM
T1 construct: host or cells: HEK-Blue cells (HEK293-derived reporter line)
T1 sequence (Q9NR97 27-1041): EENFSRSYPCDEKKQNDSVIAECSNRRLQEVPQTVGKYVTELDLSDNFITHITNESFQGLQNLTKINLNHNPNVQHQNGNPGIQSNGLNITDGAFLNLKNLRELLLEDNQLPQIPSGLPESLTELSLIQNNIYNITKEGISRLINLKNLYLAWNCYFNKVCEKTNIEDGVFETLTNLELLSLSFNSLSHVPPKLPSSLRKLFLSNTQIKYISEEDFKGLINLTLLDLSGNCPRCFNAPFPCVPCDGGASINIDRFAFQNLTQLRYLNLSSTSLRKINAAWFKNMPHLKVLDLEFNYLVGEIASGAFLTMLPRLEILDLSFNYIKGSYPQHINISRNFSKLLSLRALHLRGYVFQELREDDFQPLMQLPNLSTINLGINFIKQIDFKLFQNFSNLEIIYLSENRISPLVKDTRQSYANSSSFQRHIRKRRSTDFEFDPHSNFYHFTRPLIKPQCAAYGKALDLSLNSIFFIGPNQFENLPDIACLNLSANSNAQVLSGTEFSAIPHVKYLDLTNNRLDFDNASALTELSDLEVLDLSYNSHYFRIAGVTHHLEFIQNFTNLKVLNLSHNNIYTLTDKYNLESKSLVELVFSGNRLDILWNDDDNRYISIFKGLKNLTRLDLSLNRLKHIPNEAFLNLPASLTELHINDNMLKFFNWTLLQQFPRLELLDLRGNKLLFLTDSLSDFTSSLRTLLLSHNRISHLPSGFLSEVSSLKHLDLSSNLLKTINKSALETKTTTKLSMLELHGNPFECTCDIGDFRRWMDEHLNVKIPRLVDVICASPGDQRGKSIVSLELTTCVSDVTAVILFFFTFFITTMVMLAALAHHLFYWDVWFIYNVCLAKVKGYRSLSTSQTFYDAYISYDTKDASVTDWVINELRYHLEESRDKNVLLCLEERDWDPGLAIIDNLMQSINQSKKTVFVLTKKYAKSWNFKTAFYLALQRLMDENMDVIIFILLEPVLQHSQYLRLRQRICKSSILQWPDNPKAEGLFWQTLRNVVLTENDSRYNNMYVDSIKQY
In short: (§1)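 Percent inhibition of agonist-induced SEAP secretion in HEK-Blue cells after 22 h at 37 °C. Stimuli: 7.5 μM gardiquimod, 15.9 μM R848, 5 nM ODN2006 for TLR7, TLR8 and TLR9, added after 30 min compound exposure over a 0.05 nM–50 μM range.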

[2] = target: T2, human TLR9 (Homo sapiens, UniProt Q9NR96); experiment: TLR9 inhibition reporter assay (HEK-Blue cells, SEAP reporter, ODN2006 stimulation); details: HEK-Blue cells overexpressing human TLR9, SEAP reporter, ODN2006 5 nM
T2 construct: host or cells: HEK-Blue cells (HEK293-derived reporter line)
T2 sequence (Q9NR96 26-1032): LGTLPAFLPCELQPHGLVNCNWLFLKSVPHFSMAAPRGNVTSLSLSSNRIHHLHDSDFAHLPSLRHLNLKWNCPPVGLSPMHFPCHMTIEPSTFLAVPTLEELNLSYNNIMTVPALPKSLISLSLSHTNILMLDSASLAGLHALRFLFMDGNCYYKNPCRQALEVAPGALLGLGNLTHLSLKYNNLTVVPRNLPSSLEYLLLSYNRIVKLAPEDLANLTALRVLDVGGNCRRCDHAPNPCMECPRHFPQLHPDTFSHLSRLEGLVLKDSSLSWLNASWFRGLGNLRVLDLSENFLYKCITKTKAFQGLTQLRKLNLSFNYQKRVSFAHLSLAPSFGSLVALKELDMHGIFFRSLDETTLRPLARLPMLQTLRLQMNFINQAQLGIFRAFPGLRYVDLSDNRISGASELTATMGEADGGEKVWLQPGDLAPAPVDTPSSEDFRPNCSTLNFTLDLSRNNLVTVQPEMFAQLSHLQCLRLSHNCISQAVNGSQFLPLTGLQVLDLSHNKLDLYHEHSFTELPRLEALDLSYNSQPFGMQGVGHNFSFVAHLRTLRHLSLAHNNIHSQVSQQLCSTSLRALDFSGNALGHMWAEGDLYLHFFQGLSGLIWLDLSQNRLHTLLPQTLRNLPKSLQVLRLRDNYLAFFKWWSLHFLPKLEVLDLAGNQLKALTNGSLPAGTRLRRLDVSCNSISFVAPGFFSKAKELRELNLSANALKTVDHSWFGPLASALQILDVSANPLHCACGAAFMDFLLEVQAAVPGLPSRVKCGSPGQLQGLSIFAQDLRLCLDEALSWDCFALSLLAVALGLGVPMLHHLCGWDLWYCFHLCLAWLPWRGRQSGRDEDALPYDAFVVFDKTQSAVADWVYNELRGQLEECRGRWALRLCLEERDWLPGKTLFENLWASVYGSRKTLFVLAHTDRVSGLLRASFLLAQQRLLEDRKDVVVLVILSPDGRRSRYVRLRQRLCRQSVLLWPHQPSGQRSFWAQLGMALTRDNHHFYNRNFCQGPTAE
In short: as §1

[3] = target: T3, human TLR7 (Homo sapiens, UniProt Q9NYK1); experiment: TLR7 inhibition reporter assay (HEK-Blue cells, SEAP reporter, gardiquimod stimulation); details: HEK-Blue cells overexpressing human TLR7, SEAP reporter, gardiquimod 7.5 μM
T3 construct: host or cells: HEK-Blue cells (HEK293-derived reporter line)
T3 sequence (Q9NYK1 27-1049): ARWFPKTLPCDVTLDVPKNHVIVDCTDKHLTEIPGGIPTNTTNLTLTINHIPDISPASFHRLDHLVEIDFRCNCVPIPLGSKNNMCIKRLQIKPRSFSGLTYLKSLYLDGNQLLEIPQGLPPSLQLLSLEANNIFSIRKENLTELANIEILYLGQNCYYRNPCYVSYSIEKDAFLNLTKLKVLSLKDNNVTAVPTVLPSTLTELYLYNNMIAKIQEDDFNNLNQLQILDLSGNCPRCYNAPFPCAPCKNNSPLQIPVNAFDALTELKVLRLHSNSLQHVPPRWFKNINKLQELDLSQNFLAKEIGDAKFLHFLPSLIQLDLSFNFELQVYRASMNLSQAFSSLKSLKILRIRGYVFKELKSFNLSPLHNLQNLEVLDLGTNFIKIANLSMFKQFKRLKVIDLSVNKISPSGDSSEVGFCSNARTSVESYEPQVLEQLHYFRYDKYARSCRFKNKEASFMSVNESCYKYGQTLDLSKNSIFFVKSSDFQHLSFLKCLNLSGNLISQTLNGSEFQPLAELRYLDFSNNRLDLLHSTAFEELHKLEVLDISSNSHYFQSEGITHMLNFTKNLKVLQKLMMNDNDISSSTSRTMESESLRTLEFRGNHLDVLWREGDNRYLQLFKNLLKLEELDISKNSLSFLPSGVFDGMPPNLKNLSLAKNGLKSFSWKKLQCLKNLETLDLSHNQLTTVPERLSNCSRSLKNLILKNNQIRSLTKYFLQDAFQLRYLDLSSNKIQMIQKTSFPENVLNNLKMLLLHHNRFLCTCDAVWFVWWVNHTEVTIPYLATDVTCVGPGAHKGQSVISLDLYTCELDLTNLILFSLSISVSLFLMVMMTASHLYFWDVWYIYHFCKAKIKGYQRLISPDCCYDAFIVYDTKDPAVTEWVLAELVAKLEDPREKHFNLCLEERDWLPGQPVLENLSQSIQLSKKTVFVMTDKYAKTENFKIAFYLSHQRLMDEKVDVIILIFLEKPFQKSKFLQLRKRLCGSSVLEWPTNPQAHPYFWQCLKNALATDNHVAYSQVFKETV
In short: as §1

CNCCN1CCC(c2ccc3[nH]c(-c4ccc5[nH]ccc5c4)c(C)c3c2)CC1 [Example 667, N-methyl-2-(4-(3-methyl-1H,1′H-[2,5′-biindol]-5-yl)piperidin-1-yl)ethan-1-amine]
IC50 [1]: 1000 to 50000 nM | IC50 [2]: 100 to 1000 nM | IC50 [3]: 1000 to 50000 nM

CC(C)c1c(-c2ccnc3[nH]ncc23)[nH]c2ccc(C3CCN(C(=O)c4cscn4)CC3)cc12 [Example 611, (4-(3-isopropyl-2-(1H-pyrazolo[3,4-b]pyridin-4-yl)-1H-indol-5-yl)piperidin-1-yl)(thiazol-4-yl)methanone]
IC50 [1]: 100 to 1000 nM | IC50 [2]: 1000 to 50000 nM | IC50 [3]: < 100 nM

CC(C)c1c(-c2cc(F)c3nccn3c2)[nH]c2ccc(C3CCN(C(=O)CN(C)C)CC3)cc12 [Example 544, 2-(dimethylamino)-1-(4-(2-(8-fluoroimidazo[1,2-a]pyridin-6-yl)-3-isopropyl-1H-indol-5-yl)piperidin-1-yl)ethan-1-one]
IC50 [1]: < 100 nM | IC50 [2]: 1000 to 50000 nM | IC50 [3]: < 100 nM

CCc1c(-c2ccnc3[nH]ccc23)[nH]c2ccc(C3CCN(C4CCN(CC)CC4)CC3)cc12 [Example 837, 4-(3-ethyl-5-(1′-ethyl-[1,4′-bipiperidin]-4-yl)-1H-indol-2-yl)-1H-pyrrolo[2,3-b]pyridine]
IC50 [1]: < 100 nM | IC50 [2]: 100 to 1000 nM | IC50 [3]: < 100 nM

Cc1cn2cc(-c3[nH]c4ccc(C5CCN(C6COC6)CC5)cc4c3C(C)C)cc(C)c2n1 [Example 717, 6-(3-isopropyl-5-(1-(oxetan-3-yl)piperidin-4-yl)-1H-indol-2-yl)-2,8-dimethylimidazo[1,2-a]pyridine]
IC50 [1]: 100 to 1000 nM | IC50 [2]: 100 to 1000 nM | IC50 [3]: < 100 nM

CC(C)c1c(-c2ccc3nccnc3c2)[nH]c2ccc(C3CCNCC3)cc12 [Example 165, 6-(3-isopropyl-5-(piperidin-4-yl)-1H-indol-2-yl)quinoxaline]
IC50 [1]: 100 to 1000 nM | IC50 [2]: 1000 to 50000 nM | IC50 [3]: < 100 nM

CCc1c(-c2ccnc3[nH]ncc23)[nH]c2ccc(C3CCN(Cc4cnc(N)s4)CC3)cc12 [Example 931, 5-((4-(3-ethyl-2-(1H-pyrazolo[3,4-b]pyridin-4-yl)-1H-indol-5-yl)piperidin-1-yl)methyl)thiazol-2-amine]
IC50 [1]: > 50000 nM | IC50 [2]: > 50000 nM | IC50 [3]: > 50000 nM

CCc1c(-c2ccnc3[nH]ncc23)[nH]c2ccc(C3CCN(Cc4csnn4)CC3)cc12 [Example 930, 4-((4-(3-ethyl-2-(1H-pyrazolo[3,4-b]pyridin-4-yl)-1H-indol-5-yl)piperidin-1-yl)methyl)-1,2,3-thiadiazole]
IC50 [1]: < 100 nM | IC50 [2]: 1000 to 50000 nM | IC50 [3]: 100 to 1000 nM

CCN(C)C(=O)c1cn2cc(-c3[nH]c4ccc(C5CCNCC5)cc4c3C(C)C)cc(C)c2n1 [Example 266, N-ethyl-6-(3-isopropyl-5-(piperidin-4-yl)-1H-indol-2-yl)-N,8-dimethylimidazo[1,2-a]pyridine-2-carboxamide]
IC50 [1]: < 100 nM | IC50 [2]: 1000 to 50000 nM | IC50 [3]: < 100 nM

CCc1c(-c2cnc3[nH]ncc3c2)[nH]c2ccc(C3CCN(C4CCN(C(C)C)CC4)CC3)cc12 [Example 819, 5-(3-ethyl-5-(1′-isopropyl-[1,4′-bipiperidin]-4-yl)-1H-indol-2-yl)-1H-pyrazolo[3,4-b]pyridine]
IC50 [1]: < 100 nM | IC50 [2]: 100 to 1000 nM | IC50 [3]: 100 to 1000 nM

Cc1cc(-c2[nH]c3ccc(C4CCN(Cc5cnn[nH]5)CC4)cc3c2C(C)C)cn2nnnc12 [Example 883, 6-(5-(1-((1H-1,2,3-triazol-5-yl)methyl)piperidin-4-yl)-3-isopropyl-1H-indol-2-yl)-8-methyltetrazolo[1,5-a]pyridine]
IC50 [1]: < 100 nM | IC50 [2]: 1000 to 50000 nM | IC50 [3]: < 100 nM

COc1c(C)c(-c2[nH]c3ccc(C4CCN(CC(C)(C)O)CC4)cc3c2C(C)C)nn2ncnc12 [Example 748, 1-(4-(3-isopropyl-2-(8-methoxy-7-methyl-[1,2,4]triazolo[1,5-b]pyridazin-6-yl)-1H-indol-5-yl)piperidin-1-yl)-2-methylpropan-2-ol]
IC50 [1]: < 100 nM | IC50 [2]: 1000 to 50000 nM | IC50 [3]: < 100 nM

CCc1c(-c2ccnc3[nH]ncc23)[nH]c2ccc(C3CCN(Cc4cnn(C)c4)CC3)cc12 [Example 901, 4-(3-ethyl-5-(1-((1-methyl-1H-pyrazol-4-yl)methyl)piperidin-4-yl)-1H-indol-2-yl)-1H-pyrazolo[3,4-b]pyridine]
IC50 [1]: < 100 nM | IC50 [2]: 1000 to 50000 nM | IC50 [3]: 100 to 1000 nM

Cc1cc2nccn2cc1-c1[nH]c2ccc(C3CCN(CCCN(C)C)CC3)cc2c1C(C)C [Example 856, 3-(4-(3-isopropyl-2-(7-methylimidazo[1,2-a]pyridin-6-yl)-1H-indol-5-yl)piperidin-1-yl)-N,N-dimethylpropan-1-amine]
IC50 [1]: < 100 nM | IC50 [2]: 100 to 1000 nM | IC50 [3]: < 100 nM

CCc1c(-c2ccc3[nH]c(=O)[nH]c3c2)[nH]c2ccc(C3CCNCC3)cc12 [Example 166, 5-(3-ethyl-5-(piperidin-4-yl)-1H-indol-2-yl)-1,3-dihydro-2H-benzo[d]imidazol-2-one]
IC50 [1]: 100 to 1000 nM | IC50 [2]: 1000 to 50000 nM | IC50 [3]: 1000 to 50000 nM
